Tests used:
[1] = target: T1, Serine/threonine-protein kinase D3 (Homo sapiens) (UniProt O94806); test: Inhibition of human PRKD3 at 500 nM by HotSpot assay relative to control
T1 sequence (whole entry): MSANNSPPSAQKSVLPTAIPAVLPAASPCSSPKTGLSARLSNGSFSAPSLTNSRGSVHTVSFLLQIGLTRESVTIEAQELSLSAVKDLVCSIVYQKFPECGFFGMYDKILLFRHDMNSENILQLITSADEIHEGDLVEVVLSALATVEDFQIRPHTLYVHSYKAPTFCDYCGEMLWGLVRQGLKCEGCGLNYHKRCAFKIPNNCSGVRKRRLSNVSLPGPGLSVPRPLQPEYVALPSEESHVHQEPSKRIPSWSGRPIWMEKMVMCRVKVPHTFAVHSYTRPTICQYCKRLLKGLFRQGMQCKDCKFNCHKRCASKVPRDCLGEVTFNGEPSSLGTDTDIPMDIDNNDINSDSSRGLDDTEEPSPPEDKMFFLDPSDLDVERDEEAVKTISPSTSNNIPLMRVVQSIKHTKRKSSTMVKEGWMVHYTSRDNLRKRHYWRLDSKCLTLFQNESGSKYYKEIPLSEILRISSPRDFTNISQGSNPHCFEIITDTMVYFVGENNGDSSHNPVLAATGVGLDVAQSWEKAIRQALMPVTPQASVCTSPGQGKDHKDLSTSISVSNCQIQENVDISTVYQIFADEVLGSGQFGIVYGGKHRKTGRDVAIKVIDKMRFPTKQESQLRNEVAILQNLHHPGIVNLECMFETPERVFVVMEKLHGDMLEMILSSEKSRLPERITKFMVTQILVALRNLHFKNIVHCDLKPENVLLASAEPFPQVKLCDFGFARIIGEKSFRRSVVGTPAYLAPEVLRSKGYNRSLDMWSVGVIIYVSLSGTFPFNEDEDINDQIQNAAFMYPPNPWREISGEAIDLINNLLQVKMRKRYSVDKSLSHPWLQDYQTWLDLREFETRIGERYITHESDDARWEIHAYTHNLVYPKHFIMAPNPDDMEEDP

[2] = target: T2, cGMP-dependent protein kinase 2 (Homo sapiens) (UniProt Q13237); test: Inhibition of human PRKG2 at 500 nM by HotSpot assay relative to control
T2 sequence (whole entry): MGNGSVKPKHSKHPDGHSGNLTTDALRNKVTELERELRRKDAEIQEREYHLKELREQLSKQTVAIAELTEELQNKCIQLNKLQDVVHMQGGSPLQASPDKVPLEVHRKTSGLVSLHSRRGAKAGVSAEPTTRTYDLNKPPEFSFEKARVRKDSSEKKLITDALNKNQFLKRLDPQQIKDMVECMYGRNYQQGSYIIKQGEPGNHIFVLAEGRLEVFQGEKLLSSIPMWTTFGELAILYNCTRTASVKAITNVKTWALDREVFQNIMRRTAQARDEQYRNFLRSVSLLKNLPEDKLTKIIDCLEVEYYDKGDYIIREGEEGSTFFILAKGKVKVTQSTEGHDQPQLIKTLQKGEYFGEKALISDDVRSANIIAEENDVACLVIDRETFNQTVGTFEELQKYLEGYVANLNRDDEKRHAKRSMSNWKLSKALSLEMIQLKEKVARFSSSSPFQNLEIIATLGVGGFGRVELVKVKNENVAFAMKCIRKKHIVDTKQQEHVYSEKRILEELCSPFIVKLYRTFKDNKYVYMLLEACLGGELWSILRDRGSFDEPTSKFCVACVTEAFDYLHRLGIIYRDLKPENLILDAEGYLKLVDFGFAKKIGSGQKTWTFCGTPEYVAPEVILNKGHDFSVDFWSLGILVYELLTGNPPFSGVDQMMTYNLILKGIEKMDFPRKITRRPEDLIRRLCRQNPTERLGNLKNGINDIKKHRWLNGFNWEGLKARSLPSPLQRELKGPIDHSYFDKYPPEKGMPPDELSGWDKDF

[3] = target: Tyrosine-protein kinase SYK (Homo sapiens) (UniProt P43405); test: Inhibition of human SYK at 500 nM by HotSpot assay relative to control
[4] = target: CDK3/Cyclin E (Homo sapiens) (UniProt P24864+Q00526); test: Inhibition of human CDK3/cyclin E at 500 nM by HotSpot assay relative to control; type: protein-complex assay
[5] = target: T3, Serine/threonine-protein kinase TAO3 (Homo sapiens) (UniProt Q9H2K8); test: Inhibition of human JIK at 500 nM by HotSpot assay relative to control
T3 sequence (whole entry): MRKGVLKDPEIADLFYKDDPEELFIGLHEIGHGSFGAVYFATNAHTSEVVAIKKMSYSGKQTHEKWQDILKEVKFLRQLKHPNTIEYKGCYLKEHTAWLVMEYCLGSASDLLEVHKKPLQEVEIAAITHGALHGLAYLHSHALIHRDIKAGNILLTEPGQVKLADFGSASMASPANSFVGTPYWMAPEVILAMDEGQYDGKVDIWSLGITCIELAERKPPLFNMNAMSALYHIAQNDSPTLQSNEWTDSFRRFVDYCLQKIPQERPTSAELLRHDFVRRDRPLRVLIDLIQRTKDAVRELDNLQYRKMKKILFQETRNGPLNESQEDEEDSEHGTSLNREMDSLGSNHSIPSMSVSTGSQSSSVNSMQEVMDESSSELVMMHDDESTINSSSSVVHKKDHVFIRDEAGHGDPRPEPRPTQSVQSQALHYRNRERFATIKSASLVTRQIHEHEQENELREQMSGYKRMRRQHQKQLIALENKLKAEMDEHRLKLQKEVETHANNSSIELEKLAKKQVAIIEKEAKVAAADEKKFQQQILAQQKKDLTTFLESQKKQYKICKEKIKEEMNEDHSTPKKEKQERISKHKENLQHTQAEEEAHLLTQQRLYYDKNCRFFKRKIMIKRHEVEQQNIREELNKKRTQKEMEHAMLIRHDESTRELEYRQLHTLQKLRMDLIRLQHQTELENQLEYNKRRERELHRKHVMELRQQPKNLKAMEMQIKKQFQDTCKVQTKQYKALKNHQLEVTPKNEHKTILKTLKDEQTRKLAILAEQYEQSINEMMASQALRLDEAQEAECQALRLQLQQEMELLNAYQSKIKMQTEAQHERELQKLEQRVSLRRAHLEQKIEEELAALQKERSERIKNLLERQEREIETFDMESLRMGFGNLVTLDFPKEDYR

[6] = target: Leucine-rich repeat serine/threonine-protein kinase 2 (Homo sapiens) (UniProt Q5S007); test: Inhibition of human LRRK2 at 500 nM by HotSpot assay relative to control
[7] = target: Casein kinase I isoform epsilon (Homo sapiens) (UniProt P49674); test: Inhibition of human CK1epsilon at 500 nM by HotSpot assay relative to control
[8] = target: Calcium/calmodulin-dependent protein kinase type II subunit alpha (Homo sapiens) (UniProt Q9UQM7); test: Inhibition of human CAMK2a at 500 nM by HotSpot assay relative to control
[9] = target: Tyrosine-protein kinase Fgr (Homo sapiens) (UniProt P09769); test: Inhibition of human FGR at 500 nM by HotSpot assay relative to control
Tyrosine-protein kinase Fgr (Homo sapiens), sequence (P09769 2-529 limits assumed): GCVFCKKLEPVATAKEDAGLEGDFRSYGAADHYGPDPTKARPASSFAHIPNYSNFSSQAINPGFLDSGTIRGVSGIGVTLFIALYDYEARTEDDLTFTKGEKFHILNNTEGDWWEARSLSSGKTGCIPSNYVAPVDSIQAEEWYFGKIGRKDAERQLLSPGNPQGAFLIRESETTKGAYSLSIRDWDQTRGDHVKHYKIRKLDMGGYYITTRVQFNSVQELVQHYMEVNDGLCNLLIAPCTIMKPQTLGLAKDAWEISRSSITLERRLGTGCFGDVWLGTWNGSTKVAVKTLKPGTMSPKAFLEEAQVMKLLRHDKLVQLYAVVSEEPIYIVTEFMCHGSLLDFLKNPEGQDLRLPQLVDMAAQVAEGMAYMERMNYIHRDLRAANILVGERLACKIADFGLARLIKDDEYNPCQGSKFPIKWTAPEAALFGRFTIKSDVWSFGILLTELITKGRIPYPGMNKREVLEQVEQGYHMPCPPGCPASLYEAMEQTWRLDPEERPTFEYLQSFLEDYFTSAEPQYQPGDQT

Casein kinase I isoform epsilon (Homo sapiens), sequence (P49674 whole entry, looked up, canonical isoform): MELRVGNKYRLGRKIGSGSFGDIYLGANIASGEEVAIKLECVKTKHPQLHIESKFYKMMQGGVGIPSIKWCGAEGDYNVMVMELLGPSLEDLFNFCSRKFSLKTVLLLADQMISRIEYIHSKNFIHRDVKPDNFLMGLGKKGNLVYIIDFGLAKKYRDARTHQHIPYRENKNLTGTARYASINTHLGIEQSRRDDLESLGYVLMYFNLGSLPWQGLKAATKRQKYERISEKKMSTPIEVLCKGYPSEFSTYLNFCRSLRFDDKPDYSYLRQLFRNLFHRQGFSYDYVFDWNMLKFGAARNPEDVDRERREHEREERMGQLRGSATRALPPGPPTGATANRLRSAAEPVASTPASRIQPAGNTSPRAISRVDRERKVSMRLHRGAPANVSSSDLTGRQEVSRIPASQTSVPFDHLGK
Leucine-rich repeat serine/threonine-protein kinase 2 (Homo sapiens), sequence (Q5S007 whole entry, canonical isoform): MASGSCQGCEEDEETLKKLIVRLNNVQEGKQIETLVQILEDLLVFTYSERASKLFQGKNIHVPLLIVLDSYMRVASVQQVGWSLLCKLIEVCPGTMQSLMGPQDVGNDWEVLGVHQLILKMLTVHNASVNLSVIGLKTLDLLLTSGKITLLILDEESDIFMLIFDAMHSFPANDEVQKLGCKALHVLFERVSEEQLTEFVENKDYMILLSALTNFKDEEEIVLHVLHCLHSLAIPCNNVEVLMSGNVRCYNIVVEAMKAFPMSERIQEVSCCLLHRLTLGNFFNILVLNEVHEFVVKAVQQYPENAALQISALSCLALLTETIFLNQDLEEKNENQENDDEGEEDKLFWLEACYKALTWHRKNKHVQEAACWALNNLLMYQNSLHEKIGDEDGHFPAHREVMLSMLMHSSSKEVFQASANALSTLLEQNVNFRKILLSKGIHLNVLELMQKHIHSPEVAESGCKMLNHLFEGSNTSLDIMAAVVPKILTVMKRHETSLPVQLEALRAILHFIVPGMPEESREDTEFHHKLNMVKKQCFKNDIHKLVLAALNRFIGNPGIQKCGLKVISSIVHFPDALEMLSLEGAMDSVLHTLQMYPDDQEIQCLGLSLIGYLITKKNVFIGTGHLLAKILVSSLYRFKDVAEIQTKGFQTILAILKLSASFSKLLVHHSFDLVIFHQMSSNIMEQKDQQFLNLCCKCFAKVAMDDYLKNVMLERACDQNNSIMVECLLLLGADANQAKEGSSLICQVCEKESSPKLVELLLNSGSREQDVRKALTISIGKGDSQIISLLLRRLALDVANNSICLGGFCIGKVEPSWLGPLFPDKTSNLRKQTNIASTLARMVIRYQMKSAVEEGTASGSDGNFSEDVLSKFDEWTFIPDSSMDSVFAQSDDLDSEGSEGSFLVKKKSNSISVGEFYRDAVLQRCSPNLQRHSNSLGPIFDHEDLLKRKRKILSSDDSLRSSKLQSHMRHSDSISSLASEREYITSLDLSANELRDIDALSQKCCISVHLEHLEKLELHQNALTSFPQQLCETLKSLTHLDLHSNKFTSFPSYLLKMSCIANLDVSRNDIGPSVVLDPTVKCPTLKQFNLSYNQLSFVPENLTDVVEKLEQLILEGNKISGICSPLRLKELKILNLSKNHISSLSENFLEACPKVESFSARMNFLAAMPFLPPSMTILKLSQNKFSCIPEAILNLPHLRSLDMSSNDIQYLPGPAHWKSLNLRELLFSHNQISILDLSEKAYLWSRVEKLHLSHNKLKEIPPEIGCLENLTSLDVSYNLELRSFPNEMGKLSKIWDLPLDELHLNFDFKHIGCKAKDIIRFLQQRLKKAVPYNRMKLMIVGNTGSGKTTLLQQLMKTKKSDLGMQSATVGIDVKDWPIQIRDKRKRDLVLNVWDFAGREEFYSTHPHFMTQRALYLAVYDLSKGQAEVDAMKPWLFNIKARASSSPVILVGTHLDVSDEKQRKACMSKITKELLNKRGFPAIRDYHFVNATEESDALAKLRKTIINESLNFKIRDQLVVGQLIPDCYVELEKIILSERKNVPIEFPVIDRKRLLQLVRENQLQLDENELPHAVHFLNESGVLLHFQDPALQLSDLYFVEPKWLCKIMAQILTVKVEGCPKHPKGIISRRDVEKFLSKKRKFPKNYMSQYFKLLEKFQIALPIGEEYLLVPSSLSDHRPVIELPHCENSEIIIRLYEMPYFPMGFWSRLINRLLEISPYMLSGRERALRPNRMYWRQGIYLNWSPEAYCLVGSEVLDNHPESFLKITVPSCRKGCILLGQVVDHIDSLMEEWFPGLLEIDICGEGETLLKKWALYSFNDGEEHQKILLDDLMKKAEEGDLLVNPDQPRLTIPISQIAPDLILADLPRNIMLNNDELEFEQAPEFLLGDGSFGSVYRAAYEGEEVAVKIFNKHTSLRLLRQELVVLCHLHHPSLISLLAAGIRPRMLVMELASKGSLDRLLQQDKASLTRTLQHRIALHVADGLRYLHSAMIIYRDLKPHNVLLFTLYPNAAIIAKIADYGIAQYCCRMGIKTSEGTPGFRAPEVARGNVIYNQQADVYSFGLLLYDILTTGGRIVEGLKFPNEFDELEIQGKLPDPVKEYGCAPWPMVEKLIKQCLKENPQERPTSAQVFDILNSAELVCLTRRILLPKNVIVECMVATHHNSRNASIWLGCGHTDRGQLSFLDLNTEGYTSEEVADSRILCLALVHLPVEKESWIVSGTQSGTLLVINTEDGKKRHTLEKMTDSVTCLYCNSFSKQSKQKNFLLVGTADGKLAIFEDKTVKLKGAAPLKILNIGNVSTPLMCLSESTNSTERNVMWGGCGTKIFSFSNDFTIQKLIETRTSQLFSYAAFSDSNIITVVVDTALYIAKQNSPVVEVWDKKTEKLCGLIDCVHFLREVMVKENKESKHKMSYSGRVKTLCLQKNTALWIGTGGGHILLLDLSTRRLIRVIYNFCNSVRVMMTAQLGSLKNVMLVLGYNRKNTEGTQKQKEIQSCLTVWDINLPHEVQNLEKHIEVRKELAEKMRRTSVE
Calcium/calmodulin-dependent protein kinase type II subunit alpha (Homo sapiens), sequence (Q9UQM7 whole entry): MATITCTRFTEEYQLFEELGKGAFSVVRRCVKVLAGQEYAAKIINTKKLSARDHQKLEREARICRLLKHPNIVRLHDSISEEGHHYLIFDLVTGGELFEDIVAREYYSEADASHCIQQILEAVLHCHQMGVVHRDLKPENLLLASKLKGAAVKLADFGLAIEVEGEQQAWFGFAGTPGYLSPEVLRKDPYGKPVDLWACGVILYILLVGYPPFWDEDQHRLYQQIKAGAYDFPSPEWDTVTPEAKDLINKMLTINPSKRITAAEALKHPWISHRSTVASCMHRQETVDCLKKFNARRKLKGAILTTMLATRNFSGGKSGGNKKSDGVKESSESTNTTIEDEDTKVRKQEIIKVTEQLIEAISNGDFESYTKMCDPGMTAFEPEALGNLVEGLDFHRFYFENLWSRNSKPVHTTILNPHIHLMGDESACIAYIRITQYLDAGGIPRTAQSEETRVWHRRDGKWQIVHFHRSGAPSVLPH
CDK3/Cyclin E (Homo sapiens), sequence (P24864 whole entry, looked up): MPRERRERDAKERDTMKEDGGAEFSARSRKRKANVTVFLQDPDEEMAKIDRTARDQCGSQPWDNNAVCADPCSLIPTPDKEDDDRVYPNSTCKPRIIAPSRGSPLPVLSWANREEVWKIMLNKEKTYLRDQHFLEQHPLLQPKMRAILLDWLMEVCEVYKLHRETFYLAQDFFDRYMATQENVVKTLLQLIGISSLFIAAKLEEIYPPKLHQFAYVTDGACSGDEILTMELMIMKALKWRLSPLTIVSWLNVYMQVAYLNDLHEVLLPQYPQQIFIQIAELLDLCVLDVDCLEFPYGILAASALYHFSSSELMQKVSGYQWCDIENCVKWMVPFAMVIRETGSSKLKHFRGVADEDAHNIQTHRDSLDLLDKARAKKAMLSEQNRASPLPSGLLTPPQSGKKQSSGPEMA
CDK3/Cyclin E (Homo sapiens), sequence (Q00526 whole entry, looked up): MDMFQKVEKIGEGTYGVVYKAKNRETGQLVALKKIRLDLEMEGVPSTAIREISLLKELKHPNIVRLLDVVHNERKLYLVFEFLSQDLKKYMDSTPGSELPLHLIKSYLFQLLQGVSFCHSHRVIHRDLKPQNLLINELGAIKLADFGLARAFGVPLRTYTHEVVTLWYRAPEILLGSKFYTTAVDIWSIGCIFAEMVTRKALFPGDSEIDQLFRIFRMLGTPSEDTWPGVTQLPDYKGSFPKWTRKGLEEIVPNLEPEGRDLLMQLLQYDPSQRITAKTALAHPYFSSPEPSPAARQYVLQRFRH

SMILES	inhibition [1] [%]	inhibition [2] [%]	inhibition [3] [%]	inhibition [4] [%]	inhibition [5] [%]	inhibition [6] [%]	inhibition [7] [%]	inhibition [8] [%]	inhibition [9] [%]
Oc1n[nH]c2nnc(-c3c(-c4ccccc4)nn4ccccc34)cc12	1.12	1.76	0.47	1.33	4.08	-1.49	0.54	-5.26	-0.49
Nc1n[nH]c2nnc(-c3c(-c4ccccc4)nn4ccccc34)cc12	41.1	-3.62	2.6	3.23	-1.15	8.17	19.1	-2.07	7.1
